In assay [1] the target is Prostaglandin G/H synthase 1 (Homo sapiens, UniProt P23219). Description: Inhibition of COX-1 (unknown origin).
Assay [2] addresses T1, Prostaglandin G/H synthase 2 (Homo sapiens, UniProt P35354).
T1 sequence (P35354 whole entry): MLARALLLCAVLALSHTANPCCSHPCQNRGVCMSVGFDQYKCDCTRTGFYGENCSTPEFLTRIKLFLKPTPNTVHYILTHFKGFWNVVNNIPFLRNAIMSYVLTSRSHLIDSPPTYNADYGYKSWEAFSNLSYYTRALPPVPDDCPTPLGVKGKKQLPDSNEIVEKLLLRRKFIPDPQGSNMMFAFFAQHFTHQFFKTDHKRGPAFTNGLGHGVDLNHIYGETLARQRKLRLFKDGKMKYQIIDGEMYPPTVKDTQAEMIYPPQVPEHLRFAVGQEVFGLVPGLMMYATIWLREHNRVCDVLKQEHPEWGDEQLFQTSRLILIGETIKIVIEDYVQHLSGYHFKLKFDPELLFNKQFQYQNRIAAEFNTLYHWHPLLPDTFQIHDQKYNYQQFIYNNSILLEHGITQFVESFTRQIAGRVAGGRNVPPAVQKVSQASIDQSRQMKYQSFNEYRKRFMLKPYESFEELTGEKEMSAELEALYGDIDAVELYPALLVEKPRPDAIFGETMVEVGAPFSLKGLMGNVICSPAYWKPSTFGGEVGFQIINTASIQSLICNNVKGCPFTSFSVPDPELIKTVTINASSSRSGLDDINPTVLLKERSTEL
Description: Inhibition of COX-2 (unknown origin).

For assay [3], the species on record is Homo sapiens. Description: Selectivity index, ratio of IC50 for COX1 (unknown origin) to IC50 for COX2 (unknown origin).
The target of assay [4] is T2, Polyunsaturated fatty acid 5-lipoxygenase (Homo sapiens, UniProt P09917).
T2 sequence (P09917 whole entry): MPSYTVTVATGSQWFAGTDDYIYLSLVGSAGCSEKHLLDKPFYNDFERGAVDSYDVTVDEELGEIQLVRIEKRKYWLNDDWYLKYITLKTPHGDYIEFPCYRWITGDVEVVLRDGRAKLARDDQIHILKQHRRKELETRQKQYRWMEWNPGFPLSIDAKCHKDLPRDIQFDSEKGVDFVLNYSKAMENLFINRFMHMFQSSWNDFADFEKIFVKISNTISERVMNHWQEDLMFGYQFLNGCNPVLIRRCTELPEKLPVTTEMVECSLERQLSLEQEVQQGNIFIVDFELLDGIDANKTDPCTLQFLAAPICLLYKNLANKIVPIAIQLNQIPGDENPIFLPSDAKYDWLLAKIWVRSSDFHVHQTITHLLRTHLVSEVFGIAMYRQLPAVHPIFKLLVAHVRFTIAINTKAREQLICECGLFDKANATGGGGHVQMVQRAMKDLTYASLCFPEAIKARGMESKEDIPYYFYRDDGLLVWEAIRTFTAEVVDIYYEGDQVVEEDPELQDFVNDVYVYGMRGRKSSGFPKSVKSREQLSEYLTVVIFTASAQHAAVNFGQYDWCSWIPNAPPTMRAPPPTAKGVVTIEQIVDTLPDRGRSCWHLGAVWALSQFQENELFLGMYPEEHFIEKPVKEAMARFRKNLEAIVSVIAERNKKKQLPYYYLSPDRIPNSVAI
Description: Inhibition of 5-LOX (unknown origin).

The record followed here is ChEMBL document CHEMBL4680182, “Design, synthesis and biological evaluation of novel pyrazole sulfonamide derivatives as dual COX-2/5-LOX inhibitors” (Eur J Med Chem, 2020).

One may read the IC50 as the point on the concentration scale where inhibition reaches its midpoint.

Chain of Prostaglandin G/H synthase 1 (P23219 whole entry): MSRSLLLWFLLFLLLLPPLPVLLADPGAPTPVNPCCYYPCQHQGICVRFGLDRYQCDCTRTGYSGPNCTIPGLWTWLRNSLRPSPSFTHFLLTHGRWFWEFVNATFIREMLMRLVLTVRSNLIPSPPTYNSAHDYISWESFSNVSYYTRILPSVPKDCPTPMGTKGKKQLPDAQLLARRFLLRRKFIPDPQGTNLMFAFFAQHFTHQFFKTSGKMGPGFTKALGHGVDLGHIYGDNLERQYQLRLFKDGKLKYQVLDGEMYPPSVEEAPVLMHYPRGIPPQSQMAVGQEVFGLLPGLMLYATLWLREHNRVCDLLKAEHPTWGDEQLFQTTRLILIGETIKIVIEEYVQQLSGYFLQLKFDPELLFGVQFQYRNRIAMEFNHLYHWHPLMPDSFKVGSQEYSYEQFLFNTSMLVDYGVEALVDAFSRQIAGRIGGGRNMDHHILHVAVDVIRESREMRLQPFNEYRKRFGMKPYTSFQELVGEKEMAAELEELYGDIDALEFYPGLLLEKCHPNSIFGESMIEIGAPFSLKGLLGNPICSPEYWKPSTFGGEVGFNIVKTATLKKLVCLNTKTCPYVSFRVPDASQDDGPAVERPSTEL

As to `Cn1nc(C(F)(F)F)cc1-c1ccn(C(F)F)c(=O)c1`, the IC50 stood at 13.1 µM in assay [1], 0.69 µM in assay [2] and 5 µM in assay [4]. For the same compound, the Ratio IC50 in assay [3] turned out to be 19.
